Each block holds one molecule with its values, some of them ahead of it.
Legend:
[1] = Solubility (insoluble, not tested in animals); assay type: physicochemical
[2] = Toxicity of amidines in rats (standard laboratory procedure); assay type: in vivo
Experimental: Compounds having the structure represented by Formula I were synthesized in accordance with the appropriate procedures discussed previously. The reaction schemes shown in Charts I-III specifically identify the methodology used to synthesize the compounds of the respective examples. The compounds which were synthesized are shown in Table IA and the elemental analysis and melting points of the compounds are shown in Table IB. Most of the compounds were tested for toxicity in rats using standard laboratory procedure and the results of that toxicity testing are shown in Table XII. The compounds of Examples 31, 32, and 34 were not synthesized but may be synthesized in the general manner discussed previously.

Pneumocystis carinii [3] = test: Treatment of Pneumocystis carinii pneumonia in Sprague-Dawley rats (extent of disease by histologic score); assay type: in vivo, male Sprague-Dawley rats; conditions: for Extent of Disease by Histologic Score: number of animals with score 0.5 / Extent of Disease by Histologic Score: number of animals with score 1 / Extent of Disease by Histologic Score: number of animals with score 2 / Extent of Disease by Histologic Score: number of animals with score 3 / Extent of Disease by Histologic Score: number of animals with score 4: 14 days; for Extent of Disease by Histologic Score: number of animals with score 0.5 / Extent of disease by histologic score (combined): number of animals in scoring group 0.5: 0.5 = <10 cysts found per 2 sections; for Extent of Disease by Histologic Score: number of animals with score 1 / Extent of disease by histologic score (combined): number of animals in scoring group 1: 1 = scattered cysts, <5% of lung involved; for Extent of Disease by Histologic Score: number of animals with score 2 / Extent of disease by histologic score (combined): number of animals in scoring group 2: 2 = scattered cysts; for Extent of Disease by Histologic Score: number of animals with score 2: 5-10% lung involved or small foci of infection; for Extent of Disease by Histologic Score: number of animals with score 3 / Extent of disease by histologic score (combined): number of animals in scoring group 3: 3 = scattered cysts; for Extent of Disease by Histologic Score: number of animals with score 3: 10-50% of lung involved with some intense areas of infection; for Extent of Disease by Histologic Score: number of animals with score 4: 4 = >50% of lung involved with many intense areas of focal infection; for Extent of disease by histologic score (combined): number of animals in scoring group 0.5 / Extent of disease by histologic score (combined): number of animals in scoring group 1 / Extent of disease by histologic score (combined): number of animals in scoring group 2 / Extent of disease by histologic score (combined): number of animals in scoring group 3 / Extent of disease by histologic score (combined): number of animals in scoring group 4: Table XII composite; for Extent of disease by histologic score (combined): number of animals in scoring group 2: 5-10% of lung involved; for Extent of disease by histologic score (combined): number of animals in scoring group 3: 10-50% of lung involved; for Extent of disease by histologic score (combined): number of animals in scoring group 4: 4 = >50% of lung involved; for Efficacy in treating Pneumocystis carinii (words): 2.5 mg/kg
Pneumocystis carinii [4] = conditions: in vivo; cited from earlier work

- Solubility (not tested in animals - insoluble) [1]: insoluble
SMILES: N=C(N)c1ccc(OCCOc2ccc(C(=N)N)cc2)cc1 [Example 1]

SMILES: N=C(N)c1ccc(OCCOc2ccc(C(=N)N)cc2[N+](=O)[O-])c([N+](=O)[O-])c1 [Example 2]
- Solubility (not tested in animals - insoluble) [1]: insoluble

- Solubility (not tested in animals - insoluble) [1]: insoluble
SMILES: N=C(N)c1ccc(OCCCCCOc2ccc(C(=N)N)cc2Br)c(Br)c1 [Example 16]

SMILES: CN1CCN=C1c1ccc(OCCCCCOc2ccc(C3=NCCN3C)cc2)cc1 [Example 42]
- Toxicity of amidines: Effect ([2]; dose as in value, else not given in Table XIII (10 mg/kg test dose)): Acute toxicity at 10 mg/kg and 5 mg/kg
- Toxicity of amidines: Effect ([2]; rat, in vivo, 2.5 mg/kg): no toxicity
- Extent of Disease by Histologic Score: number of animals with score 0.5 (Pneumocystis carinii [3]; 2.5 mg/kg i.v. daily): 0 animals
- Extent of Disease by Histologic Score: number of animals with score 1 (Pneumocystis carinii [3]; 2.5 mg/kg i.v. daily): 0 animals
- Extent of Disease by Histologic Score: number of animals with score 2 (Pneumocystis carinii [3]; 2.5 mg/kg i.v. daily): 2 animals
- Extent of Disease by Histologic Score: number of animals with score 3 (Pneumocystis carinii [3]; 2.5 mg/kg i.v. daily): 3 animals
- Extent of Disease by Histologic Score: number of animals with score 4 (Pneumocystis carinii [3]; 2.5 mg/kg i.v. daily): 3 animals
- Extent of disease by histologic score (combined): number of animals in scoring group 0.5 (Pneumocystis carinii [3]; tested at 2.5 mg/kg): 0 animals
- Extent of disease by histologic score (combined): number of animals in scoring group 1 (Pneumocystis carinii [3]; tested at 2.5 mg/kg): 0 animals
- Extent of disease by histologic score (combined): number of animals in scoring group 2 (Pneumocystis carinii [3]; tested at 2.5 mg/kg): 2 animals
- Extent of disease by histologic score (combined): number of animals in scoring group 3 (Pneumocystis carinii [3]; tested at 2.5 mg/kg): 3 animals
- Extent of disease by histologic score (combined): number of animals in scoring group 4 (Pneumocystis carinii [3]; tested at 2.5 mg/kg): 3 animals

SMILES: COc1cc(C2=NCCN2)ccc1OCCCCCOc1ccc(C2=NCCN2)cc1OC [Example 43]
- Toxicity of amidines: Effect ([2]; rat, in vivo, 5 mg/kg): no toxicity
- Extent of Disease by Histologic Score: number of animals with score 0.5 (Pneumocystis carinii [3]; 5 mg/kg i.v. daily): 1 animals
- Extent of Disease by Histologic Score: number of animals with score 1 (Pneumocystis carinii [3]; 5 mg/kg i.v. daily): 3 animals
- Extent of Disease by Histologic Score: number of animals with score 2 (Pneumocystis carinii [3]; 5 mg/kg i.v. daily): 1 animals
- Extent of Disease by Histologic Score: number of animals with score 3 (Pneumocystis carinii [3]; 5 mg/kg i.v. daily): 2 animals
- Extent of Disease by Histologic Score: number of animals with score 4 (Pneumocystis carinii [3]; 5 mg/kg i.v. daily): 0 animals
- Extent of disease by histologic score (combined): number of animals in scoring group 0.5 (Pneumocystis carinii [3]; tested at 5 mg/kg): 1 animals
- Extent of disease by histologic score (combined): number of animals in scoring group 1 (Pneumocystis carinii [3]; tested at 5 mg/kg): 3 animals
- Extent of disease by histologic score (combined): number of animals in scoring group 2 (Pneumocystis carinii [3]; tested at 5 mg/kg): 1 animals
- Extent of disease by histologic score (combined): number of animals in scoring group 3 (Pneumocystis carinii [3]; tested at 5 mg/kg): 2 animals
- Extent of disease by histologic score (combined): number of animals in scoring group 4 (Pneumocystis carinii [3]; tested at 5 mg/kg): 0 animals
- Efficacy in treating PCP compared with control (Pneumocystis carinii [3]; compound at 5 mg/kg): significantly better than the control

SMILES: COc1cc(C2=NCCN2)ccc1OCCCOc1ccc(C2=NCCN2)cc1OC [Example 44]
- Toxicity of amidines: Effect ([2]; rat, in vivo, 2.5 mg/kg): no toxicity
- Efficacy in treating Pneumocystis carinii (words) (Pneumocystis carinii [3]): very effective in treating Pneumocystis carinii
- Extent of Disease by Histologic Score: number of animals with score 0.5 (Pneumocystis carinii [3]; 2.5 mg/kg i.v. daily): 6 animals
- Extent of Disease by Histologic Score: number of animals with score 1 (Pneumocystis carinii [3]; 2.5 mg/kg i.v. daily): 2 animals
- Extent of Disease by Histologic Score: number of animals with score 2 (Pneumocystis carinii [3]; 2.5 mg/kg i.v. daily): 0 animals
- Extent of Disease by Histologic Score: number of animals with score 3 (Pneumocystis carinii [3]; 2.5 mg/kg i.v. daily): 0 animals
- Extent of Disease by Histologic Score: number of animals with score 4 (Pneumocystis carinii [3]; 2.5 mg/kg i.v. daily): 0 animals
- Efficacy in treating Pneumocystis carinii (words) (Pneumocystis carinii [3]; listed as Compound 44): very good at one fourth the dose level of pentamidine
- Extent of disease by histologic score (combined): number of animals in scoring group 0.5 (Pneumocystis carinii [3]; tested at 2.5 mg/kg): 6 animals
- Extent of disease by histologic score (combined): number of animals in scoring group 1 (Pneumocystis carinii [3]; tested at 2.5 mg/kg): 2 animals
- Extent of disease by histologic score (combined): number of animals in scoring group 2 (Pneumocystis carinii [3]; tested at 2.5 mg/kg): 0 animals
- Extent of disease by histologic score (combined): number of animals in scoring group 3 (Pneumocystis carinii [3]; tested at 2.5 mg/kg): 0 animals
- Extent of disease by histologic score (combined): number of animals in scoring group 4 (Pneumocystis carinii [3]; tested at 2.5 mg/kg): 0 animals
- Efficacy in treating PCP compared with pentamidine (Pneumocystis carinii [3]; compound at 2.5 mg/kg): much better than pentamidine at only one fourth the dose

SMILES: N=C(N)c1ccc(OCCCOc2ccc(C(=N)N)cc2Br)c(Br)c1 [dibromopropamidine]
- Known effectiveness against Pneumocystis carinii pneumonia (Pneumocystis carinii [4]): some effectiveness against PCP

Source: US4933347A, “Diamidines and bis(imidazolines) for the treatment of and prophylaxis against pneumocystis carinii pneumonia” (University of North Carolina at Chapel Hill, priority 1988, dated 1990)
